{"source": "patent US20160187321A1", "about": "“INDUCED EXPRESSION OF PROTEINS IN INSECT CELLS” (UNIVERSITY OF FLORIDA RESEARCH FOUNDATION, INC., priority 2013, published 2016)", "key": {"potassium channels": {"tested_on": "potassium channels", "assay": "Thallium flux (FluxOR) fluorescence assay of potassium channel function in Sua1B cells", "type": "cell-based, Anopheles gambiae", "experimental": "(§1) Differentiation with 20-Hydroxyecdysone. […] Controls had 0.1% DMSO.\nThallium Flux Measurements of Potassium Channel Pharmacology. The FluxOR™ potassium channel assay (Molecular Probes, Inc., Eugene, Oreg., USA) was performed as outlined in the product information sheet and performed on the SyntaxMax plate reader (BioTek, Winooski, Vt., USA)."}, "muscarinic-type receptor": {"tested_on": "muscarinic-type receptor", "assay": "Calcium fluorescence response to muscarinic agonists in Sua1B cells", "type": "cell-based, Anopheles gambiae", "excerpt": "(§2) Cell Culture. […] Cells were passed every 3-5 days.\n(§3) Differentiation with 20-Hydroxyecdysone."}, "[1]": {"tested_on": "nicotinic acetylcholine receptors", "assay": "Imidacloprid-induced calcium fluorescence in Sf21 cells", "type": "cell-based, lepidopteran", "experimental": "(§4) FIGS. 8A-8C. […] Imidacloprid-induced calcium fluorescence is blocked by 100 μM mecamylamine (MML). […] FIG. 8B: Response of a patch clamped Sf21 cell to imidacloprid treatment after 6 hours in 20-HE. […] The current voltage plot was generated by subtracting TEA-insensitive current from total current at each voltage.\nFIG. 9. […] Expression of IMI-induced fluorescence is the same, with even lower vehicle background with caffeine, at least in this particular experiment."}, "[2]": {"tested_on": "nicotinic acetylcholine receptors", "assay": "Patch clamp of Sf21 cell response to imidacloprid", "type": "cell-based, lepidopteran", "settings": "Sf21 cell after 6 hours in 20-HE", "experimental": "as §4"}, "[3]": {"tested_on": "nicotinic acetylcholine receptors", "assay": "Imidacloprid-induced calcium fluorescence in Sua1B cells", "type": "cell-based, Anopheles gambiae"}, "AgKv2 K+ channels": {"tested_on": "AgKv2 K+ channels", "assay": "Whole cell patch clamp of AgKv2 K+ channels expressed in HEK293 cells", "type": "cell-based, Anopheles gambiae"}, "[4]": {"tested_on": "Kv2 delayed-rectifier potassium channels (AgKv2)", "assay": "Whole cell patch clamp of potassium channel currents in Sua1B cells", "type": "cell-based, Anopheles gambiae", "excerpt": "as §2, §1"}, "[5]": {"tested_on": "Kv2 delayed-rectifier K+ channel (AgKv2), native channel current in Sua1B cells", "settings": "read-out: IC50 (TEA inhibition of K+ current), FIG. 5F, whole cell patch clamp, holding potential −80 mV, steps up to +100 mV, TEA 0.3-30 mM traces, 20-HE added 3 hours before experiments (general method)", "excerpt": "as §2, §3"}, "[6]": {"tested_on": "Anopheles gambiae Kv2 (AgKv2) channel (Accession # XM_315955.4) expressed in HEK293 cells", "settings": "read-out: EC50 (TEA inhibition of K+ current); FIG. 6E; HEK293 cells with AgKv2 gene, CMV promoter, tetracycline-induced (w/ TC); whole cell patch clamp, holding potential −80 mV, steps up to +100 mV"}, "[7]": {"tested_on": "outward potassium currents similar to Kv2 currents", "assay": "Patch clamp of potassium currents in Sf21 cells", "type": "cell-based, lepidopteran", "settings": "3 hours treatment", "experimental": "as §4"}}, "note": "“Also recorded” adds a separate entry of the source. Read-outs that look alike come from different tables or passages of the source.", "data": [{"smiles": "NC1=N[C@H](O)[C@H]2[C@H]3O[C@]4(O)O[C@@H]([C@@H](O)[C@@]2(N1)[C@@H]4O)[C@]3(O)CO", "note": "[tetrodotoxin]", "values": [{"measurement": "effect on thallium ion uptake", "setting": "potassium channels", "result": "no effect"}]}, {"smiles": "CC(C[N+](C)(C)C)OC(N)=O", "note": "(centres unmarked) [bethanechol]", "values": [{"measurement": "fold less potent response in the absence of insect hormone", "setting": "muscarinic-type receptor", "result": "~200", "unit": "fold"}, {"measurement": "EC50", "setting": "muscarinic-type receptor; read-out: EC50 (concentration where the response is half maximal), calcium fluorescence", "result": 0.25, "unit": "µM"}, {"measurement": "EC50", "setting": "muscarinic-type receptor; read-out: EC50, calcium fluorescence", "result": 48, "unit": "µM"}]}, {"smiles": "Cn1c(=O)c2c(ncn2C)n(C)c1=O", "note": "[caffeine]", "values": [{"measurement": "expression of imidacloprid sensitivity (IMI-induced fluorescence)", "setting": "[1]; Sf21 cells, 6 hours exposure, 10 μM imidacloprid", "result": "approximately the same effect as caffeine and 20-HE"}]}, {"smiles": "O=[N+]([O-])NC1=NCCN1Cc1ccc(Cl)nc1", "note": "[imidacloprid]", "values": [{"measurement": "calcium fluorescence compared to matched controls", "setting": "[1]; 10 μM, Sf21 cells, 6 hours of exposure to 20-HE", "result": "greater imidacloprid-induced calcium fluorescence"}, {"measurement": "calcium fluorescence", "setting": "[1]; Sf21 cells without 20-HE", "result": "reduced effect"}, {"measurement": "current response of patch clamped cell", "setting": "[2]", "result": "inward current"}, {"measurement": "calcium fluorescence versus controls", "setting": "[3]; Sua1B cells in the absence of 20-HE", "result": "no imidacloprid effect"}, {"measurement": "calcium fluorescence versus controls", "setting": "[3]; Sua1B cells, 3 hours of 20-HE treatment", "result": "increases calcium fluorescence above controls"}]}, {"smiles": "CNC1(C)C2CCC(C2)C1(C)C", "note": "(centres unmarked) [mecamylamine]", "values": [{"measurement": "block of imidacloprid-induced calcium fluorescence", "setting": "[1]; 100 μM, Sf21 cells, 6 hours 20-HE", "result": "blocked"}, {"measurement": "reduction of imidacloprid-induced calcium fluorescence", "setting": "[1]; Sf21 cells without 20-HE", "result": "variable and not statistically significant reduction"}, {"measurement": "block of imidacloprid-increased calcium fluorescence", "setting": "[3]; 100 μM, Sua1B cells, 3 hours of 20-HE treatment", "result": "blocked"}]}, {"smiles": "CC[N+](CC)(CC)CC", "note": "[TEA, tetraethylammonium]", "values": [{"measurement": "inhibition of AgKv2 K+ current", "setting": "AgKv2 K+ channels", "result": "inhibited; also recorded: Inhibition of potassium current"}, {"measurement": "inhibition of Kv2 (AgKv2) K+ currents", "setting": "[4]", "result": "inhibited AgKv2 currents; also recorded: Inhibition of K^+ current"}, {"measurement": "IC50", "setting": "[5]", "result": 8000, "unit": "µM"}, {"measurement": "EC50", "setting": "[6]", "result": 1300, "unit": "µM"}]}, {"smiles": "CC(C)(O)CC[C@@H](O)[C@](C)(O)[C@H]1CC[C@@]2(O)C3=CC(=O)[C@@H]4C[C@@H](O)[C@@H](O)C[C@]4(C)[C@H]3CC[C@]12C", "note": "[20-HE, 20-hydroxyecdysone]", "values": [{"measurement": "Maximal increase of AgKv2 channel expression (current)", "setting": "[4]; 20-HE treatment of Sua1B cells", "result": 2000, "unit": "pA"}, {"measurement": "time after treatment at which Kv2 delayed-rectifier potassium channels are expressed", "setting": "[4]; Sua1B cells, whole cell patch clamp", "result": "≤ 3", "unit": "h"}, {"measurement": "expression of nicotinic acetylcholine receptors", "setting": "[1]; Sf21 cells, 6 hours of exposure", "result": "enhances expression"}, {"measurement": "expression of potassium currents", "setting": "[7]", "result": "expressing outward potassium currents"}, {"measurement": "K+ channel expression (thallium fluorescence)", "setting": "potassium channels; Sua1B cells, 42 μM 20-HE, time dependence", "result": "detectable ion channel expression in hours"}]}, {"smiles": "Nc1ccncc1", "note": "[4-AP, 4-aminopyridine]", "values": [{"measurement": "inhibition of AgKv2 K+ current", "setting": "AgKv2 K+ channels; HEK293 cells expressing the AgKv2 gene", "result": "inhibited"}, {"measurement": "inhibition of Kv2 (AgKv2) K+ currents", "setting": "[4]; 20-HE-treated Sua1B cells", "result": "inhibited AgKv2 currents"}, {"measurement": "inhibition of Kv2 (AgKv2) K+ currents", "setting": "[4]; 20-HE-treated Sua1B cells, listed as 4-aminopyridine", "result": "inhibited"}, {"measurement": "effect on thallium ion uptake", "setting": "potassium channels; Sua1B cells induced by 20-HE", "result": "blocking action"}]}]}
